For series [1], the target named is T1, N-acylneuraminate-9-phosphatase (Homo sapiens, UniProt Q8TBE9).
T1 sequence (Q8TBE9 whole entry): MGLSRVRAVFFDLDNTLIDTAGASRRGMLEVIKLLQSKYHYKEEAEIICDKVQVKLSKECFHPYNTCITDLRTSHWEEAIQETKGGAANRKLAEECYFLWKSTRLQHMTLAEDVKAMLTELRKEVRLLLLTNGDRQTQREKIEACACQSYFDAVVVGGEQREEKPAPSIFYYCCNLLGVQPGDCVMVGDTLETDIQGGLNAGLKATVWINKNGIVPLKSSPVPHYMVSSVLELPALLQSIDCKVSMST
As to the kind of experiment: Inhibition of recombinant HDHD4 (unknown origin) using Neu5Ac-9-P as substrate assessed as release of phosphate after 30 mins by maiachite green assay.

Series [2] concerns the target T1, N-acylneuraminate-9-phosphatase. As to the kind of experiment: Reversible inhibition of recombinant HDHD4 (unknown origin) using Neu5Ac-9-P as substrate assessed as release of phosphate after 30 mins by maiachite green assay.
Series [3] can be described thus: Dissociation constant, pKa of the compound by potentiometric titration method. In kind it is physicochemical.

With `CO[C@@]1(C(=O)O)C[C@H](O)[C@@H](NC(C)=O)[C@H]([C@H](O)[C@H](O)CCP(=O)(O)O)O1`, the IC50 (in general, the concentration needed to halve the response being measured) in series [1] is 49.8 µM.
Consider `CC(=O)N[C@H]1[C@H]([C@H](O)[C@H](O)CCP(=O)(O)O)O[C@](O)(C(=O)O)C[C@@H]1O`, for which, in series [2], the IC50 stood at 11 µM. Also, the pKa (commonly the negative logarithm of the acid dissociation constant) in series [3] was found to be 3.5.
Take `COC(=O)[C@]1(OC)C[C@H](O)[C@@H](NC(C)=O)[C@H]([C@H](O)[C@H](O)CCP(=O)(O)O)O1`: in series [1], the IC50 turned out to be 93.7 µM.
In turn, `CC(=O)N[C@H]1[C@H]([C@H](O)[C@H](O)COP(=O)(O)O)O[C@](O)(C(=O)O)C[C@@H]1O` yielded a pKa in series [3] of 3.6.
In the case of `CC(=O)N[C@H]1[C@H]([C@H](O)[C@H](O)CCC(=O)O)O[C@](O)(C(=O)O)C[C@@H]1O`, the IC50 in series [1] was over 100 µM.
In series [3], `CC(=O)N[C@H]1[C@H]([C@H](O)[C@H](O)CO)O[C@](O)(C(=O)O)C[C@@H]1O` gave a pKa of 3.2.

These data come from ChEMBL document CHEMBL2401673, “Design, synthesis, functional and structural characterization of an inhibitor of N-acetylneuraminate-9-phosphate phosphatase: observation of extensive dynamics in an enzyme/inhibitor complex” (Bioorg Med Chem Lett, 2013).
